Measured values as given in the supplement of paper PMC4862054.

Experiments:
Conditions in all cases: incubation time: 72 h
[1] = test system: HCC1599; test: normalised response (% of control), CellTox Green; higher = less cell death (100 = DMSO, 0 = benzethonium chloride kill control)
How it was run: (§1)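 Each entry is the normalised signal at a single concentration within a series. The series comprised 5 concentrations in 10-fold steps over a compound-specific 10,000-fold range, placed in 384-well plates into which breast cancer cell lines were seeded as 20 µl suspension and incubated 72 h. CellTox Green (485/520 nm) fluorescence and then CellTiter-Glo luminescence were read, with signals normalised per plate to 0.1 % DMSO (100) and a positive kill control (0).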

[2] = test system: BT-474; test: as above
How it was run: as §1

[3] = test system: HCC1143; test: as above
How it was run: as §1

[4] = test system: BT-549; test: as above
How it was run: as §1

[5] = test system: DU-4475; test: as above
How it was run: as §1

[6] = test system: MDA-MB-453; test: as above
How it was run: as §1

[7] = test system: MDA-MB-436; test: as above
How it was run: as §1

[8] = test system: CAL-148; test: as above
How it was run: as §1

[9] = test system: MDA-MB-231; test: as above
How it was run: as §1

[10] = test system: CAL-51; test: as above
How it was run: as §1

[11] = test system: HDQ-P1; test: as above
How it was run: as §1

[12] = test system: Hs578T; test: as above
How it was run: as §1

[13] = test system: MFM-223; test: as above
How it was run: as §1

[14] = test system: CAL-120; test: as above
How it was run: as §1

[15] = test system: CAL-85-1; test: as above
How it was run: as §1

[16] = test system: HCC1937; test: as above
How it was run: as §1

[17] = test system: MDA-MB-468; test: as above
How it was run: as §1

[18] = test system: HCC1599; test: normalised response (% of control), CellTiter-Glo; higher = more viable cells (100 = DMSO, 0 = benzethonium chloride kill control)
Procedure: (§2)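 DSRT, 72 h incubation, CellTox Green / CellTiter-Glo readout. Signal is normalised to DMSO and benzethonium chloride controls. Value is the normalised response at the highest dose.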

[19] = test system: SK-BR-3; test: as above
Procedure: as §2

[20] = test system: BT-474; test: as above
Procedure: as §2

[21] = test system: HCC1143; test: as above
Procedure: as §2

[22] = test system: BT-549; test: as above
Procedure: as §2

[23] = test system: DU-4475; test: as above
Procedure: as §2

[24] = test system: MDA-MB-453; test: as above
Procedure: as §2

[25] = test system: MDA-MB-436; test: as above
Procedure: as §2

[26] = test system: CAL-148; test: as above
Procedure: as §2

[27] = test system: MDA-MB-231; test: as above
Procedure: as §2

[28] = test system: CAL-51; test: as above
Procedure: as §2

[29] = test system: HDQ-P1; test: as above
Procedure: as §2

[30] = test system: MCF-10A; test: as above
Procedure: as §2

[31] = test system: Hs578T; test: as above
Procedure: as §2

[32] = test system: MFM-223; test: as above
Procedure: as §2

[33] = test system: CAL-120; test: as above
Procedure: as §2

[34] = test system: CAL-85-1; test: as above
Procedure: as §2

[35] = test system: HCC1937; test: as above
Procedure: as §2

[36] = test system: MDA-MB-468; test: as above
Procedure: as §2

[37] = test system: MCF-10A; test: normalised response (% of control), CellTox Green; higher = less cell death (100 = DMSO, 0 = benzethonium chloride kill control)
How it was run: as §1

Row | Compound | normalised response [1] | normalised response [2] | normalised response [3] | normalised response [4] | normalised response [5] | normalised response [6] | normalised response [7] | normalised response [8] | normalised response [9] | normalised response [10] | normalised response [11] | normalised response [12] | normalised response [13] | normalised response [14] | normalised response [15] | normalised response [16] | normalised response [17] | normalised response [18] | normalised response [19] | normalised response [20] | normalised response [21] | normalised response [22] | normalised response [23] | normalised response [24] | normalised response [25] | normalised response [26] | normalised response [27] | normalised response [28] | normalised response [29] | normalised response [30] | normalised response [31] | normalised response [32] | normalised response [33] | normalised response [34] | normalised response [35] | normalised response [36] | normalised response [37]
1 | CCCS(=O)(=O)Nc1ccc(F)c(C(=O)c2c[nH]c3ncc(-c4ccc(Cl)cc4)cc23)c1F [Vemurafenib] (10000 nM) | 95.8% | 95.4% | 100% | 89.5% | 77.1% | 101% | 92.7% | 75.7% | 87% | 65.3% | 98.9% | 71.5% | 97.7% | 97.3% | 109% | 78.4% | 148% | 86.4% | 71% | 82.6% | 86.1% | 71.8% | 2.81% | 89.3% | 66.8% | 94.7% | 86.3% | 78.4% | 70.7% | 95.8% | 70.7% | 80.1% | 91.1% | 85.1% | 84% | 57.2% | 
2 | C=CC(=O)Nc1cc2c(Nc3ccc(F)c(Cl)c3)ncnc2cc1OCCCN1CCOCC1 [Canertinib] (10000 nM) | 111% | 55.4% | 84.5% | 55.1% | 89.5% | 87.6% | 87.1% | 65.4% | 13.5% | 5.47% | 37.8% | -21.7% | 26.9% | 31% | -11% | 80.3% | -36.9% | 66.4% | 24.4% | 15.9% | 24.3% | 4.73% | 74.1% | 25.5% | 22.2% | 42.9% | 5% | 3.06% | 1.5% | 0.13% | 17.4% | 26.4% | 26.6% | 3.6% | 14.5% | 2.49% | -28.8%
3 | Nc1ccccc1NC(=O)c1ccc(CNC(=O)OCc2cccnc2)cc1 [Entinostat] (10000 nM) | 75.2% | 54.9% | 104% | 69.9% | 73.1% | 90.6% | 38.9% | 46.4% | 29.8% | 29% | 102% | 110% | 74.4% | 88.6% | 8.15% | 43.6% | -141% | 32.3% | 14.2% | 42% | 19% | 31.6% | 5.86% | 21.6% | 71.6% | 29.8% | 39.1% | 31.8% | 73.2% | 82.9% | 48.3% | 18% | 73.2% | 41.7% | 67.4% | 19.1% | 90.9%
4 | CCN(CC)CCCC(C)Nc1c2ccc(Cl)cc2nc2ccc(OC)cc12 (stereo not drawn) [Mepacrine] (50000 nM) | 93.3% | 104% | 104% | 97.8% | 96.4% | 61.2% | 91.2% | 88% |  | 99.1% | 99.8% | 58.1% | 84.8% | 95.8% | 101% | 112% | 89.7% | 113% | 89.3% | 100% | 99.2% | 106% | 92.2% | 98.8% | 97% | 91% | 94.8% | 87.4% | 101% | 100% | 97.7% | 93.5% | 106% | 103% | 100% | 102% | 103%
5 | O=C(O)C(=O)O.[NH-][C@@H]1CCCC[C@H]1[NH-].[Pt+2] [Oxaliplatin] (10000 nM) | 98.3% | 96.6% | 68.5% | 108% | 96.8% | 98.6% | 62% |  | 93.5% | 79.2% |  | 107% | 93% | 99.1% | 128% | 92.8% | 124% | 97.3% | 91.9% | 100% | 99.8% | 101% | 86.5% | 89.5% | 98.4% | 85.5% | 91.5% | 91.5% | 102% | 86.4% | 97% | 86.9% | 106% | 102% | 98.4% | 97.2% | 
6 | Nc1nc(F)nc2c1ncn2[C@@H]1O[C@H](CO)[C@@H](O)[C@@H]1O [Fludarabine] (10000 nM) | 101% | 97.5% | 116% | 93.6% | 97.6% | 98.5% | 84.9% | 93% | 103% | 101% | 105% | 93.3% |  | 96% | 68.5% | 91.6% | 119% | 78.9% | 99% | 82.9% | 69.9% | 79.1% | 106% | 112% | 53.2% | 87.6% | 95.2% | 125% | 96.3% | 114% | 98.3% | 108% | 86.1% | 83.9% | 86.3% | 105% | 101%
7 | CNC(=O)c1cc(Oc2ccc(NC(=O)Nc3cc(C(C)(C)C)nn3-c3ccc4ncccc4c3)c(F)c2)ccn1 [Rebastinib] (1000 nM) | 100% | 89.2% | 115% | 77.5% | 99.7% | 104% | 85.7% | 101% | 102% | 99.7% |  | 106% | 101% | 85.9% |  | 107% | 64% | 102% | 92.1% | 81.6% | 102% | 71.3% | 96.7% | 111% | 112% | 118% | 77.8% | 74.1% | 95.7% | 102% | 116% | 62.2% | 69.2% | 87.5% | 99.8% | 102% | 101%
8 | O=C(O)C1(C(=O)O)CCC1.[NH2-].[NH2-].[Pt+2] [Carboplatin] (10000 nM) | 100% | 106% |  | 88.1% | 99.8% | 94.3% | 99.8% | 97.8% | 103% | 97.1% | 80.6% | 135% | 94% | 103% | 99.3% | 101% | 108% | 108% | 92.8% | 98.8% | 103% | 103% | 96.9% | 95.8% | 92.5% | 103% | 96.9% | 114% | 101% | 99.2% | 99.3% | 102% | 101% | 96.4% | 89.2% | 92.4% | 117%
9 | Nc1nc2[nH]cc(CCc3ccc(C(=O)N[C@@H](CCC(=O)O)C(=O)O)cc3)c2c(=O)[nH]1 [Pemetrexed] (10000 nM) | 91.5% | 77.3% | 119% | 98.9% | 96.7% | 93% | 80.4% | 102% | 70.5% | 87% | 111% | 65.3% | 98.8% | 99.8% | 81.1% | 99% |  | 75.9% | 65.9% | 39% | 91% | 97.2% | 93.7% | 97.5% | 78.1% | 88.5% | 48% | 68.3% | 82.7% | 91.7% | 18.5% | 89.7% | 81.9% | 54.2% | 65.9% | 93.3% | 72%
